Measured values from patent US5773014A, “Compositions and methods for inhibiting the formation of unwanted skin pigmentation” (priority 1996, dated 1998).
Values after ≈ are worked out from the molar mass of the structure shown.

Tests used:
solubility = assay type: physicochemical; conditions: read-out: max. solubility
tyrosinase = assay: in vitro tyrosinase inhibition (dopachrome formation from L-Dopa, spectrophotometry at 475 nm); assay type: biochemical
Excerpt: Tyrosinase catalyzes the formation of L-dopaquinone, and then dopachrome (in the eumelanin pathway), from L-Dopa. […] Comparisons in the rate at which this colored substance appears in the presence of a candidate whitening material indicate the effect of the material on enzymatic activity; complete absence of dopachrome reflects total inhibition of tyrosinase.

cells in a culture = conditions: reported for other skin whiteners; cited from earlier work
human skin explants = conditions: 0.55% (w/v), positive control; L-Dopa 0.05M, 15 hours at 37° C.
Method: The anti-tyrosinase activity of the invention was also evaluated using an ex vivo tissue model by exposing human skin explants to the material. […] Oxidation of L-Dopa by tyrosinase produces in the melanocyte an observable black pigment, which can easily be detected by optical microscopy. Tyrosinase activity can be measured by the intensity of the observed coloration.
A positive control and a negative control were also conducted in the same experiment. […] The explants, each exposed to a different test solution, were incubated with L-Dopa (0.05M) for 15 hours at 37° C. After fixation and inclusion in paraffin, the skin slices were colored with hemalun/eosin/safran and cresyl violet, and observed by optical microscopy under white light.

Tyrosinase Inhibition (%) (tyrosinase; concentration 0.1%) | SMILES | Tyrosinase Inhibition (%) (tyrosinase; concentration 5%) | Tyrosinase Inhibition (%) (tyrosinase; concentration 1%) | IC50 (cytotoxicity, kills more than 50% of the cells in a culture) (cells in a culture) | further results
– | OC[C@H]1O[C@@H](Oc2ccc(O)cc2)[C@H](O)[C@@H](O)[C@@H]1O [Pure Arbutin, arbutin] | 45% | – | – | solubility (solubility): 50 mg/mL (≈ 184 mM); Tyrosinase Inhibition (%) (tyrosinase; concentration 0.2%): 20%; Tyrosinase Inhibition (%) (tyrosinase; concentration 0.5%): 25%; Tyrosinase Inhibition (%) (tyrosinase; concentration 2.5%): 35%
71% | O=c1cc(CO)occ1O [kojic acid] | – | 80% | – | –
– | CCCCC/C=C\C/C=C\CCCCCCCC(=O)O [linoleic acid] | – | – | 2.8 µg/mL | –
– | Oc1ccc(O)cc1 [hydroquinone] | – | – | 5.5 µg/mL | formation of melanin in explant melanocytes (human skin explants): completely inhibited the formation of melanin; tyrosinase-inhibiting activity (in words) (tyrosinase; tested at different concentrations (FIG. 1)): exhibits no tyrosinase-inhibiting activity
66% | O=C1O[C@H]([C@@H](O)CO)C(O)=C1O [Ascorbic acid, ascorbic acid] | – | – | 880 µg/mL | –

SMILES | Tyrosinase Inhibition (%) (tyrosinase; concentration 0.1%) | Tyrosinase Inhibition (%) (tyrosinase; concentration 5%) | Tyrosinase Inhibition (%) (tyrosinase; concentration 1%) | IC50 (cytotoxicity, kills more than 50% of the cells in a culture) (cells in a culture) | further results
O=C(O)CN(CCN(CC(=O)O)CC(=O)O)CC(=O)O [EDTA, ethylenediaminetetraacetic acid] | 0% | 78.9% | 47.3% | – | –
